Molecules are shown by their SMILES.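 Following 48 hours of exposure in 96-well plates, responses at five concentrations were used to interpolate endpoints linearly. TGI: concentration producing complete growth inhibition.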

Holding throughout (assay): NCI anticancer screen, dose series, 48 h
Assay [1] relates to 786-0 renal.
Assay [2] deals with A498 renal.
The test system of assay [3] is ACHN renal.
Assay [4] concerns CAKI-1 renal.
Assay [5] relates to HCC-2998 colon.
Assay [6] deals with HOP-92 NSCLC.
The subject of assay [7] is MALME-3M melanoma.
Assay [8] relates to MOLT-4 leukemia.
Assay [9] relates to SK-MEL-28 melanoma.
For assay [10], the system named is SK-OV-3 ovarian.
The test system of assay [11] is T-47D breast.
For assay [12], the system named is LOX IMVI melanoma.
The test system of assay [13] is SF-539 CNS.
Assay [14] has as its system SK-MEL-2 melanoma.

`COC(=O)N[C@H](C(=O)NC(OCc1ccccc1)C1COC(C)(C)O1)C(C)O[Si](C)(C)C(C)(C)C` (some centres undefined): the TGI in assay [1], in [2], in assay [3], in assay [4], in [5] and in [6] was > 100 µM in each case. Besides, the TGI in [7], in [8], in [9], in assay [10] and in [11] was > 100 µM each time.
With `COCCn1cnc2c(Cl)nc(Nc3ccccc3)nc21`, the TGI in assay [1] was > 100 µM; in [2], > 100 µM; in [3], 36.4 µM; in [5] it was 40 µM; in assay [12], 33.2 µM; in assay [8], 60.5 µM. Moreover, the TGI in assay [13] was > 100 µM; in assay [14] it was 47.4 µM; in [9], > 100 µM; in assay [10], > 100 µM; in assay [11] it was > 100 µM.
As to `CCOC(=O)C(NC(=O)c1ccccc1)(N1CCN(c2cc3c(cc2F)c(=O)c(C(=O)O)cn3C2CC2)CC1)C(F)(F)F` (centres undefined), the TGI was > 100 µM in assay [1]; 72 µM in assay [2]; 58.9 µM in assay [3]; 50.2 µM in assay [4]; 38.6 µM in assay [5]; 38 µM in [6]. The TGI in assay [7] amounted to 39.3 µM; in assay [8], 32.8 µM; in assay [13] it was 30.9 µM; in assay [14] it was 38.9 µM; in assay [9], 74.6 µM; in assay [10], 80.2 µM. For the same compound, in [11], the TGI amounted to 46.1 µM.
On to `Cc1ccc(C(=O)NCc2ccccc2)cc1N=NN(C)C`, for which the TGI in assay [1], in [3], in assay [4], in assay [5], in [6] and in assay [12] was > 100 µM throughout. Further, the TGI in assay [7], in assay [8], in assay [13], in [14], in assay [9] and in [10] was > 100 µM each time. For the same compound, in [11], the TGI is > 100 µM.
For `CCCCC1Cc2cc(O)ccc2-c2nc3cc(O)ccc3n21` (centres undefined) (tested in a mixture with another compound), the TGI in [1] is 52.9 µM; in assay [3] it was 33.7 µM; in [4], 89 µM; in assay [5], 27.4 µM; in assay [6], 30.5 µM; in [12], 30.9 µM. In addition, the TGI is 57.8 µM in assay [7]; 46.9 µM in [8]; 28.5 µM in assay [13]; 40.4 µM in [10]; > 100 µM in assay [11].
On to `Cc1ccc2c(c1)CC1(Cc3cccc(C)c3C1=O)C2=O` (centres undefined), for which the TGI in [1] was > 100 µM; in [2] it was > 100 µM; in [3], > 100 µM; in assay [5], > 100 µM; in [6] it was > 100 µM; in assay [12], > 10 µM. Further, the TGI is > 100 µM in assay [7]; > 100 µM in [8]; > 100 µM in [13]; > 100 µM in assay [9]; > 100 µM in assay [10]; > 10 µM in assay [11].
As to `C/C=C\C(CC(=O)NCC(=O)c1c[nH]c2ccccc12)CC(=O)OC` (centres undefined), the TGI in assay [1], in assay [2], in assay [3], in [4], in assay [5] and in assay [6] was > 100 µM in each case. Further, the TGI in assay [7], in [8], in [14], in assay [9], in [10] and in assay [11] was > 100 µM in each case.
As for `Cn1nnnc1SC(F)(F)c1nc2ccccc2o1`, the TGI in assay [1], in assay [2], in assay [3], in assay [4], in [5] and in assay [6] was > 100 µM in each case. Besides, the TGI in assay [7], in [8], in assay [13], in assay [14], in [9] and in [10] was > 100 µM throughout. For the same compound, the TGI in assay [11] was > 100 µM.
Regarding `CC(NC(=O)c1c(O)[nH]c(=S)[nH]c1=O)c1ccc([N+](=O)[O-])cc1` (centres undefined), the TGI in assay [1], in assay [3], in assay [4], in assay [5], in [6] and in [12] was > 100 µM each time. Moreover, the TGI is 95 µM in [8]; > 100 µM in assay [13]; > 100 µM in [14]; > 100 µM in assay [9]; > 100 µM in assay [10]; > 100 µM in assay [11].
Take `NCCCN(CCCN)CCc1cn(C(=O)c2ccccc2)cn1`: the TGI stood at 25.6 µM in [1]; 19.2 µM in assay [3]; 16.1 µM in assay [4]; 19 µM in [5]; 13.2 µM in assay [6]; 43.5 µM in assay [12]. Further, the TGI in assay [7] was found to be 33.8 µM; in assay [8] it was 17.9 µM; in [13] it was 35.3 µM; in [14] it was 24.7 µM; in [9] it was 33.2 µM; in assay [10], 27.5 µM. In assay [11], this compound yielded a TGI of 16.8 µM.
As for `CC(=O)OCC1OC(n2c(C)c(N=Nc3ccc(Cl)cc3)c(C)c(C#N)c2=S)C(OC(C)=O)C(OC(C)=O)C1OC(C)=O` (centres undefined), the TGI in [1] is 42.4 µM; in [3], > 100 µM; in assay [4], > 100 µM; in [5], > 100 µM; in [6], 20.2 µM; in assay [12], > 100 µM. Further, the TGI in assay [7] is > 100 µM; in assay [8], > 100 µM; in [13], > 100 µM; in assay [14], 92.1 µM; in assay [9], > 100 µM; in assay [10] it was > 100 µM. In [11], the TGI was > 100 µM.

For the origin of these results see PubChem BioAssay (NCI).
